Test results from the supplement of paper PMC12076712.
Each block holds one compound with its values, some of them ahead of it.

Assays:
Assay in all cases: pIC50, kinobeads binding competition
TYK2 = TYK2 (UniProt P29597)
Outline: (§1)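 Fold changes relative to vehicle, from biological duplicates, were fitted with logistic dose-response models in the R drc package to give pIC50. These fold changes came from TMT10 LC-MS/MS quantification of digested Kinobeads-bound proteins. Compound was applied at nine concentrations (top 30 μM) either to live Jurkat cells in 1:4 steps for 60 min at 37 °C before lysis, or to Jurkat lysate or a 1:1:1:1 HEK293/K-562/HepG2/placenta lysate mix in 1:5 steps for 60 min at 4 °C.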

UniProt Q8NI60 = target: UniProt Q8NI60
Outline: as §1

PDIK1L = PDIK1L (UniProt Q8N165)
Outline: as §1

WEE1 = WEE1 (UniProt P30291)
Outline: as §1

UniProt P21127 = target: UniProt P21127
Outline: as §1

ROCK1 = ROCK1 (UniProt Q13464)
Outline: as §1

UniProt Q9Y5S2 = conditions: cell material: Lysate mix
Outline: as §1

UniProt P09619 = conditions: cell material: Lysate mix
Outline: as §1

EPHA4 = EPHA4 (UniProt P54764); conditions: cell material: Lysate mix
Outline: as §1

UniProt Q13131 = target: UniProt Q13131
Outline: as §1

DYRK1B = DYRK1B (UniProt Q9Y463)
Outline: as §1

EPHA5 = EPHA5 (UniProt P54756); conditions: cell material: Lysate mix
Outline: as §1

EPHB1 = target: T1, EPHB1 (UniProt P54762); conditions: cell material: Lysate mix
T1 sequence (whole entry): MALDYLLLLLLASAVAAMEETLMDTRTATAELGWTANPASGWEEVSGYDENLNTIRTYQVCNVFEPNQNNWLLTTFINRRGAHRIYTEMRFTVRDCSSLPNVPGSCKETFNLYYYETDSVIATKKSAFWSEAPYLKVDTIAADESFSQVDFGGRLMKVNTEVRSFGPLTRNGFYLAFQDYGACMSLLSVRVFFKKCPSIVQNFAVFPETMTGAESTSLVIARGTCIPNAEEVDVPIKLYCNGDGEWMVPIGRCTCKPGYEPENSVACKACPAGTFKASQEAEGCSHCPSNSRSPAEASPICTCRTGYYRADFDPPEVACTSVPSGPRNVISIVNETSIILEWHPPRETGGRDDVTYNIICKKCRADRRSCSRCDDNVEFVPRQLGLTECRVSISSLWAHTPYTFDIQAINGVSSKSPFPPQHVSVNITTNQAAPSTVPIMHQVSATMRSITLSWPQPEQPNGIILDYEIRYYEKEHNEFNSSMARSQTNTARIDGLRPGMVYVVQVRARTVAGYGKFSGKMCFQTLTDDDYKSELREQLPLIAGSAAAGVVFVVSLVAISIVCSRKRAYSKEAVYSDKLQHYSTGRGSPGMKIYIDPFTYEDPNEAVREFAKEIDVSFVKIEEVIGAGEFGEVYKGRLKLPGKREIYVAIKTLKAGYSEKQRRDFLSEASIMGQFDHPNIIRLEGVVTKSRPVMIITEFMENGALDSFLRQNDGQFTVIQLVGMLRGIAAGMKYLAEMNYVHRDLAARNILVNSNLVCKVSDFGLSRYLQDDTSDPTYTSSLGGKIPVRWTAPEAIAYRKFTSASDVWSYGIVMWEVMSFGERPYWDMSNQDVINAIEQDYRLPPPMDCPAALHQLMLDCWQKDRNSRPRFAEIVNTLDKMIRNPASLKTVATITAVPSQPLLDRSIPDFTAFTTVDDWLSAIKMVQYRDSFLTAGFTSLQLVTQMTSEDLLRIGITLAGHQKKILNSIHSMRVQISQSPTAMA
Outline: as §1

UniProt P21127, sequence (P21127 whole entry): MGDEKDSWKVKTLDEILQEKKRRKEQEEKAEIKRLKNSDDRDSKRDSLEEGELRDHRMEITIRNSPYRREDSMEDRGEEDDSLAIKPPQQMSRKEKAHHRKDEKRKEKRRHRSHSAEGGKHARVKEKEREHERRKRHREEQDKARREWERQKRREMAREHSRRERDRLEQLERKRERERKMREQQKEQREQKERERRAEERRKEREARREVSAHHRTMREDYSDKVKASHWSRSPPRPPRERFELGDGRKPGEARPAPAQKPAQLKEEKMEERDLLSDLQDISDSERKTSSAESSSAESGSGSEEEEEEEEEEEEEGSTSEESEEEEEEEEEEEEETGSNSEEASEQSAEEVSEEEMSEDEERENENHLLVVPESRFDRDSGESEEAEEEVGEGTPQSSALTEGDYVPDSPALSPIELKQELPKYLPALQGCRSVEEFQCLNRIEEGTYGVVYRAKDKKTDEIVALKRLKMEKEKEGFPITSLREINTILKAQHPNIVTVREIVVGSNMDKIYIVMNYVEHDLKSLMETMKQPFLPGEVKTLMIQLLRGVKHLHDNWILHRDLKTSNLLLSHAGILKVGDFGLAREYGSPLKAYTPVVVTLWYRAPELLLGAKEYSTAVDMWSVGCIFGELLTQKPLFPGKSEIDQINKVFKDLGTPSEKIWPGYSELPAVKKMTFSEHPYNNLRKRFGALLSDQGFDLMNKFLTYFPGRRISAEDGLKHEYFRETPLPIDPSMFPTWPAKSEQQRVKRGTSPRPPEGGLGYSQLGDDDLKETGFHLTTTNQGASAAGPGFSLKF
UniProt Q8NI60, sequence (Q8NI60 whole entry, looked up): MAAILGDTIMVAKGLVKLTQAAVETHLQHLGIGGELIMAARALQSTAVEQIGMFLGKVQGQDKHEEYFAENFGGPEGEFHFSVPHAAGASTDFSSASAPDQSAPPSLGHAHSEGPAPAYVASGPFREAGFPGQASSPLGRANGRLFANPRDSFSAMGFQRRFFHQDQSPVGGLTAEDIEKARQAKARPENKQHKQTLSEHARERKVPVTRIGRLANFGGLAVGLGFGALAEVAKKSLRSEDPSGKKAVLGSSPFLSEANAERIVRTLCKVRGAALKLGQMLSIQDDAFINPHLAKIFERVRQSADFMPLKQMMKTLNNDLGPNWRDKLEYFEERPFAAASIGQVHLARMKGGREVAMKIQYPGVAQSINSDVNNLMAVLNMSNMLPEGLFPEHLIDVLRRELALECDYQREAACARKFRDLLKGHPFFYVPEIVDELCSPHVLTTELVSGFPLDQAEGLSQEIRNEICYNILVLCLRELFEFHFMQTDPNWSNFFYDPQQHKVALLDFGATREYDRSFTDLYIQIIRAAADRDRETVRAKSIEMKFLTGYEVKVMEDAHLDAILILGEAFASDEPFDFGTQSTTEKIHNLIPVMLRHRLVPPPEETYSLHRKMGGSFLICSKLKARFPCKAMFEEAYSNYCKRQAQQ
UniProt Q9Y5S2, sequence (Q9Y5S2 whole entry): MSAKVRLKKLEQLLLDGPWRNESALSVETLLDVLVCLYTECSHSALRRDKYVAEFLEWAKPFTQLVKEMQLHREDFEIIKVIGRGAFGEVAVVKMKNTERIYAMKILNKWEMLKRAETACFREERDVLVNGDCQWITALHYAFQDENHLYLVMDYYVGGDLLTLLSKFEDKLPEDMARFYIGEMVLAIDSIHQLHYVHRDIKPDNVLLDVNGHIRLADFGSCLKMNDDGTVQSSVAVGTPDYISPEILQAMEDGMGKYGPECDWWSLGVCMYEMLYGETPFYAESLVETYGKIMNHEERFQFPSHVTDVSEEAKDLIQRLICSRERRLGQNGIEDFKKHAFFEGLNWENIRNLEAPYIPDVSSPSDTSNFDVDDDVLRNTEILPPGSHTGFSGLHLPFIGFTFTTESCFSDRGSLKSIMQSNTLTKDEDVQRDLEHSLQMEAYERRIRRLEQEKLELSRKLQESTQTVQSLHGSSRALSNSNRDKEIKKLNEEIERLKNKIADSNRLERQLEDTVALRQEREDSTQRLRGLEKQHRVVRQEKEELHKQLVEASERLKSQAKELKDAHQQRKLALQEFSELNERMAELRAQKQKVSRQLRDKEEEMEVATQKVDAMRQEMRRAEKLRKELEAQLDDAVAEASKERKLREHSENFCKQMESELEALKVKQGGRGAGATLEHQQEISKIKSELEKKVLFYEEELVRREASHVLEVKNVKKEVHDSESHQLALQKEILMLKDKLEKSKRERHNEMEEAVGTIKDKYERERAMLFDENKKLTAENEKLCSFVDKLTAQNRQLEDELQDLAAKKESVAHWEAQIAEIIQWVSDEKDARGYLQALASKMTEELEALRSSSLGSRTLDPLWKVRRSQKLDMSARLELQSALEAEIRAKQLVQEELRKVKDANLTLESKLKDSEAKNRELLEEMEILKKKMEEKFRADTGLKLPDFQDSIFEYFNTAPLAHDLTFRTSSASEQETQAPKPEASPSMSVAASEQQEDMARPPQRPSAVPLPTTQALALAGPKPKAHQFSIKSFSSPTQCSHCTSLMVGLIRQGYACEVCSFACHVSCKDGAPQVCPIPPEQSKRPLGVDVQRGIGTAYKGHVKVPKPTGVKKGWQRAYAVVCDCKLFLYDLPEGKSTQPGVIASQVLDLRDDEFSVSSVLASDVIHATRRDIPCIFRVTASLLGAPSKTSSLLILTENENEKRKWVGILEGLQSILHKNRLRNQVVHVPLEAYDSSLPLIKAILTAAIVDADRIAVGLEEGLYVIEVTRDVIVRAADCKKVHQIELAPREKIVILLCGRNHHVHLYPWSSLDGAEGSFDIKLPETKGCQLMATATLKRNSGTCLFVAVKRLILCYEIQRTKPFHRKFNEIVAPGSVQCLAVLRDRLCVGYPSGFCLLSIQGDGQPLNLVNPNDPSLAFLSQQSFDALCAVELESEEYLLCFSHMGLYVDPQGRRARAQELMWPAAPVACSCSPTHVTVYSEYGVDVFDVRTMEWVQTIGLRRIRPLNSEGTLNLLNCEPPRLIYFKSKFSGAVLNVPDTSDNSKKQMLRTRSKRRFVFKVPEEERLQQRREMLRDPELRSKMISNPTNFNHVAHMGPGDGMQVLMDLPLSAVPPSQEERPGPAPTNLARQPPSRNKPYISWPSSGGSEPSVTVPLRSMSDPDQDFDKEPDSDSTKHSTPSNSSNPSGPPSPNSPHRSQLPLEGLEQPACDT
WEE1, sequence (P30291 whole entry, looked up): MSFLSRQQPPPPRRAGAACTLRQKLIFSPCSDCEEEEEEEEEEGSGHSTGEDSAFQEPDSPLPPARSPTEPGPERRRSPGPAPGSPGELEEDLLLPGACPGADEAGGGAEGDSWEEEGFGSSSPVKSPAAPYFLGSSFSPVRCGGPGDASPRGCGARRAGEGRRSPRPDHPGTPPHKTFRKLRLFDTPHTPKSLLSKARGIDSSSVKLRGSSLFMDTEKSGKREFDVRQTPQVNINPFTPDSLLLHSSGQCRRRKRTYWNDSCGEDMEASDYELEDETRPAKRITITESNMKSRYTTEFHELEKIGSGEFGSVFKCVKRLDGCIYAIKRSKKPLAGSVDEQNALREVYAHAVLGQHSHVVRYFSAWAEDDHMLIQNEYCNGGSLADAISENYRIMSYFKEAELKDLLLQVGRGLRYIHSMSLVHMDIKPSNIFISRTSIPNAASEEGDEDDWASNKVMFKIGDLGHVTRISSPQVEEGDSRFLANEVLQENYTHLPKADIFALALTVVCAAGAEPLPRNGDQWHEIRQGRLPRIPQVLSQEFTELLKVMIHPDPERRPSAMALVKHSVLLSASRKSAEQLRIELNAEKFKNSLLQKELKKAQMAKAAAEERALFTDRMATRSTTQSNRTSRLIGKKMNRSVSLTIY
EPHA5, sequence (P54756 whole entry): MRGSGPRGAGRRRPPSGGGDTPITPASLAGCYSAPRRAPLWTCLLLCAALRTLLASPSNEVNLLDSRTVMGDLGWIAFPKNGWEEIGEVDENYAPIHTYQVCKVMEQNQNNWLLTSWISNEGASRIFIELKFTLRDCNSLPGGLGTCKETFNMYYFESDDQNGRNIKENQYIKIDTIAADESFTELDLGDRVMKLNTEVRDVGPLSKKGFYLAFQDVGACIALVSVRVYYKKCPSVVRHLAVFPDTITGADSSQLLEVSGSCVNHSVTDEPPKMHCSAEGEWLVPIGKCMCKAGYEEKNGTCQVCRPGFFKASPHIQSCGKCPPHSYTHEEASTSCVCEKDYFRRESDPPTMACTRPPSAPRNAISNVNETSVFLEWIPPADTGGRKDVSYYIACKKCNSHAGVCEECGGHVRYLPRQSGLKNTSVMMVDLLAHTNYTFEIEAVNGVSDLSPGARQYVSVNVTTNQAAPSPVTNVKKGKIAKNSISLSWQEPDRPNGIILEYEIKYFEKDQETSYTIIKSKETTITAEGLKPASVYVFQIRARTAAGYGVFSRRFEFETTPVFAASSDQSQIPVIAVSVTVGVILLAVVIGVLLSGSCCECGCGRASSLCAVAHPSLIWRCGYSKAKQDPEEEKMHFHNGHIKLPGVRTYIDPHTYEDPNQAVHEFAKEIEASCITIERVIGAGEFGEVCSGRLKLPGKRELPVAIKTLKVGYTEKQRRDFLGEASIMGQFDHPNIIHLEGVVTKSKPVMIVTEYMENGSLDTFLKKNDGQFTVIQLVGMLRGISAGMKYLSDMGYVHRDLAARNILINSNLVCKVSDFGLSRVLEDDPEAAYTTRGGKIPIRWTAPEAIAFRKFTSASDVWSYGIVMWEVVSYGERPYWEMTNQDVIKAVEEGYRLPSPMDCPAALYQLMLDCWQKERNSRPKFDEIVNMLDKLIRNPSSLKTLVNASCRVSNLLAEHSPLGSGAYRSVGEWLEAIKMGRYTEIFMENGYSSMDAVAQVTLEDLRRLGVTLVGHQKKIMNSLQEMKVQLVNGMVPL

SMILES: CCNC(=O)c1cc(Nc2cc(C3CC3)[nH]n2)nc(N2CCN(Cc3ccc(S(=O)(=O)F)cc3)CC2)n1
pIC50 (TYK2; cell material: Lysate mix): < 4.52
pIC50 (UniProt Q8NI60; cell material: Lysate mix): < 4.52
pIC50 (PDIK1L; cell material: Lysate mix): 5.89
pIC50 (WEE1; cell material: Lysate mix): < 4.52
pIC50 (UniProt P21127; cell material: Lysate mix): < 4.52
pIC50 (ROCK1; cell material: Lysate mix): < 4.52
pIC50 (UniProt Q9Y5S2): < 4.52
pIC50 (UniProt P09619): < 4.52
pIC50 (EPHA4): < 4.52
pIC50 (UniProt Q13131; cell material: Lysate mix): 7.03
pIC50 (DYRK1B; cell material: Lysate mix): 5.08
pIC50 (EPHA5): < 4.52
pIC50 (EPHB1): < 4.52

SMILES: CCNC(=O)c1cc(Nc2cc(C)[nH]n2)nc(N2CCN(Cc3ccc(S(=O)(=O)F)cc3)CC2)n1
pIC50 (TYK2; cell material: Lysate mix): < 4.52
pIC50 (UniProt Q8NI60; cell material: Lysate mix): < 4.52
pIC50 (PDIK1L; cell material: Lysate mix): 5.5
pIC50 (WEE1; cell material: Lysate mix): < 4.52
pIC50 (UniProt P21127; cell material: Lysate mix): < 4.52
pIC50 (ROCK1; cell material: Lysate mix): < 4.52
pIC50 (UniProt Q9Y5S2): < 4.52
pIC50 (UniProt P09619): < 4.52
pIC50 (EPHA4): < 4.52
pIC50 (UniProt Q13131; cell material: Lysate mix): 6.97
pIC50 (DYRK1B; cell material: Lysate mix): < 4.52
pIC50 (EPHA5): < 4.52
pIC50 (EPHB1): < 4.52

SMILES: C#CCNC(=O)c1cc(Nc2cc(C3CC3)[nH]n2)nc(N2CCN(Cc3ccc(S(=O)(=O)F)cc3)CC2)n1
pIC50 (TYK2; cell material: Jurkat cells): < 4.52
pIC50 (TYK2; cell material: Jurkat lysate): < 4.52
pIC50 (TYK2; cell material: Lysate mix): < 4.52
pIC50 (UniProt Q8NI60; cell material: Jurkat cells): < 4.52
pIC50 (UniProt Q8NI60; cell material: Jurkat lysate): < 4.52
pIC50 (UniProt Q8NI60; cell material: Lysate mix): < 4.52
pIC50 (PDIK1L; cell material: Jurkat cells): 6.16
pIC50 (PDIK1L; cell material: Jurkat lysate): 5.61
pIC50 (PDIK1L; cell material: Lysate mix): 5.64
pIC50 (WEE1; cell material: Jurkat cells): 5.62
pIC50 (WEE1; cell material: Jurkat lysate): < 4.52
pIC50 (WEE1; cell material: Lysate mix): < 4.52
pIC50 (UniProt P21127; cell material: Jurkat cells): < 4.52
pIC50 (UniProt P21127; cell material: Jurkat lysate): < 4.52
pIC50 (UniProt P21127; cell material: Lysate mix): < 4.52
pIC50 (ROCK1; cell material: Jurkat lysate): < 4.52
pIC50 (ROCK1; cell material: Lysate mix): < 4.52
pIC50 (UniProt Q9Y5S2): < 4.52
pIC50 (UniProt P09619): < 4.52
pIC50 (EPHA4): < 4.52
pIC50 (UniProt Q13131; cell material: Jurkat cells): 6.64
pIC50 (UniProt Q13131; cell material: Jurkat lysate): 6.58
pIC50 (UniProt Q13131; cell material: Lysate mix): 7.2
pIC50 (DYRK1B; cell material: Jurkat cells): 5.47
pIC50 (DYRK1B; cell material: Jurkat lysate): < 4.52
pIC50 (DYRK1B; cell material: Lysate mix): < 4.52
pIC50 (EPHA5): < 4.52
pIC50 (EPHB1): < 4.52

SMILES: C#CCNC(=O)c1cc(Nc2cc(C)[nH]n2)nc(N2CCN(Cc3ccc(S(=O)(=O)F)cc3)CC2)n1
pIC50 (TYK2; cell material: Lysate mix): < 4.52
pIC50 (UniProt Q8NI60; cell material: Lysate mix): < 4.52
pIC50 (PDIK1L; cell material: Lysate mix): 5.14
pIC50 (WEE1; cell material: Lysate mix): < 4.52
pIC50 (UniProt P21127; cell material: Lysate mix): < 4.52
pIC50 (ROCK1; cell material: Lysate mix): < 4.52
pIC50 (UniProt Q9Y5S2): < 4.52
pIC50 (UniProt P09619): < 4.52
pIC50 (EPHA4): < 4.52
pIC50 (UniProt Q13131; cell material: Lysate mix): 6.3
pIC50 (DYRK1B; cell material: Lysate mix): < 4.52
pIC50 (EPHA5): < 4.52
pIC50 (EPHB1): < 4.52

More lines, now with the values ahead:

pIC50 (TYK2; cell material: Jurkat cells): < 4.52
pIC50 (TYK2; cell material: Jurkat lysate): < 4.52
pIC50 (TYK2; cell material: Lysate mix): < 4.52
pIC50 (UniProt Q8NI60; cell material: Jurkat cells): < 4.52
pIC50 (UniProt Q8NI60; cell material: Jurkat lysate): < 4.52
pIC50 (UniProt Q8NI60; cell material: Lysate mix): < 4.52
pIC50 (PDIK1L; cell material: Jurkat cells): 5.43
pIC50 (PDIK1L; cell material: Jurkat lysate): < 4.52
pIC50 (PDIK1L; cell material: Lysate mix): < 4.52
pIC50 (WEE1; cell material: Jurkat lysate): < 4.52
pIC50 (WEE1; cell material: Lysate mix): < 4.52
pIC50 (UniProt P21127; cell material: Jurkat cells): < 4.52
pIC50 (UniProt P21127; cell material: Jurkat lysate): < 4.52
pIC50 (UniProt P21127; cell material: Lysate mix): < 4.52
pIC50 (ROCK1; cell material: Jurkat cells): < 4.52
pIC50 (ROCK1; cell material: Jurkat lysate): < 4.52
pIC50 (ROCK1; cell material: Lysate mix): < 4.52
pIC50 (UniProt Q9Y5S2): < 4.52
pIC50 (UniProt P09619): < 4.52
pIC50 (EPHA4): < 4.52
pIC50 (UniProt Q13131; cell material: Jurkat cells): 6.8
pIC50 (UniProt Q13131; cell material: Jurkat lysate): 5.32
pIC50 (UniProt Q13131; cell material: Lysate mix): 5.56
pIC50 (DYRK1B; cell material: Jurkat cells): 4.8
pIC50 (DYRK1B; cell material: Jurkat lysate): < 4.52
pIC50 (DYRK1B; cell material: Lysate mix): < 4.52
pIC50 (EPHA5): < 4.52
pIC50 (EPHB1): < 4.52
SMILES: O=C(NCCNC(=O)c1cc(Nc2cc(C3CC3)[nH]n2)nc(N2CCN(Cc3ccc(S(=O)(=O)F)cc3)CC2)n1)OC1CC/C=C/CCC1 (stereo not drawn)

pIC50 (TYK2; cell material: Lysate mix): < 4.52
pIC50 (UniProt Q8NI60; cell material: Lysate mix): < 4.52
pIC50 (PDIK1L; cell material: Lysate mix): < 4.52
pIC50 (WEE1; cell material: Lysate mix): < 4.52
pIC50 (UniProt P21127; cell material: Lysate mix): < 4.52
pIC50 (ROCK1; cell material: Lysate mix): < 4.52
pIC50 (UniProt Q9Y5S2): < 4.52
pIC50 (UniProt P09619): < 4.52
pIC50 (EPHA4): < 4.52
pIC50 (UniProt Q13131; cell material: Lysate mix): 5.24
pIC50 (DYRK1B; cell material: Lysate mix): < 4.52
pIC50 (EPHA5): < 4.52
pIC50 (EPHB1): < 4.52
SMILES: Cc1cc(Nc2cc(C(=O)NCCNC(=O)OC3CC/C=C/CCC3)nc(N3CCN(Cc4ccc(S(=O)(=O)F)cc4)CC3)n2)n[nH]1 (stereo not drawn)
